Structures can show the parent of a compound that is named as a salt. Where two headings read alike, the source gives them in different places.
Tests used:
[1] = target: T1, recombinant human LTA4 hydrolase (rhLTAH) (Homo sapiens, UniProt P09960); assay: Recombinant Human LTA Hydrolase Assay for LTA Hydrolase Inhibitor Activity; format: biochemical; conditions: 10 min preincubation with 250 ng enzyme, LTA4 substrate, room temperature, pH 7.4
T1 construct: made in house; host or cells: Spodoptera frugiperda Sf-9 cells (baculovirus)
T1 sequence (P09960 1-611): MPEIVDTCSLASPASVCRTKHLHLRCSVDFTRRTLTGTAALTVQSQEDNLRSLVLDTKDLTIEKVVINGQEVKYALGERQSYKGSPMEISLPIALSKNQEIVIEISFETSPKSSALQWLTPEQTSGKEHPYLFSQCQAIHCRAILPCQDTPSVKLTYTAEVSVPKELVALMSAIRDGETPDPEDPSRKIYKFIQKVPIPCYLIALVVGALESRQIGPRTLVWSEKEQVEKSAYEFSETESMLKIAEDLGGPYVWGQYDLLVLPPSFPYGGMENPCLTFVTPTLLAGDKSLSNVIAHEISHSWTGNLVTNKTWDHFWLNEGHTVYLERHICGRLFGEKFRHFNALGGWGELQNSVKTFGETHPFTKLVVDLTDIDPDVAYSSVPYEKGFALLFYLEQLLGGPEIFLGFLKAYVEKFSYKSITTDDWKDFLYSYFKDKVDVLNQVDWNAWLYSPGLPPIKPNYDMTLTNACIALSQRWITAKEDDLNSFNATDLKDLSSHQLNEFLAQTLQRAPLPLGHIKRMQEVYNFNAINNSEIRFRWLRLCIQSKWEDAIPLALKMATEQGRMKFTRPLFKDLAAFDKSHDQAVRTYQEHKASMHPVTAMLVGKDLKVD
Procedure: Compounds of the present invention were tested for LTA hydrolase inhibitor activity against recombinant human LTA hydrolase (rhLTAH).
One or more predetermined amounts of a compound of the invention were incubated in assay buffer (0.1 M potassium phosphate, 5 mg/ml fatty acid free BSA, 10% DMSO, pH 7.4) for 10 minutes at room temperature with 250 ng of recombinant hLTA4 H to allow binding, if any, between the enzyme and inhibitor. […] LTA4 (free acid) was thawed and diluted in assay buffer (minus DMSO) to a concentration of 350 ng/ml and 25 μl (8ng) of LTA4 substrate was added to the reaction mixture (total volume of reaction mixture=200 μl at time zero. Each reaction was carried out at room temperature for 10 minutes. The reaction was stopped by diluting 25 μl of the reaction mixture with 500 μl of the assay buffer without DMSO. LTA4 was quantified in the diluted sample by a commercially available enzyme-linked immunoassay [Caymen Chemical Col. Ann Arbor, Mich.] using the method recommended in the manufacturer's instructions and compared to the amount of LTA4 produced in a negative control (i.e., essentially identical conditions except without addition of an inhibitor compound). The IC50 was routinely calculated from the data produced.

[2] = tested on: calcium ionophore-induced LTB4 production in human blood; assay: Inhibition of calcium ionophore-induced LTB4 production in human blood (HWB); format: cell-based; conditions: read-out: Inhibition of Calcium Ionophore-induced LTB4 Production in Human Blood (HWB) IC50
Procedure: LTB4 and Thromboxane Production by Calcium Ionophore Stimulated Human Blood for LTB4 Hydrolase Inhibitor Activity
Human blood, collected in heparin-containing Vacutainer tubes, was diluted 1:4 with RPMI-1640 media and 200 μl of the diluted blood was added into each of a 96-well microtiter plate. […] After incubating for 15 minutes at 37° C. in a humidified incubator, calcium ionophore A13187 (Sigma Chemical Co., St. Louis, Mo.) was added to a final concentration of 20 mcg/ml and the incubation continued under the same conditions for an additional 10 minutes to allow LTB4 formation. The reaction was terminated by centrifugation (833 g, 10 minutes at 4° C.) and supernatant were analyzed for LTB4 and thromboxane by commercially available enzyme-linked immunoassays (Caymen Chemical Co., Ann Arbor, Mich.) according to the manufacturer's instructions. The IC50 of each test compound was determined from the amount of inhibition of LTB4 production as compared to an essentially identical assay in which no inhibitor compound was present.

[3] = tested on: LTB4 production by calcium ionophore stimulated mouse blood; assay: Murine ex vivo LTB4 inhibition (calcium ionophore stimulated mouse blood after oral dosing); format: in vivo; conditions: for inhibition at 10 mg/kg: read-out: Murine Ex Vivo LTB4 Inhibition, % I LTB4 at 1 hour after administration
Procedure: The compounds were administered by oral garage to adult male outbred mice weighing approximately 20-30 gm at a dose of 10 mg/kg body weight. […] The mixture was incubated for 10 minutes at 37° C. in a humidified incubator. The reaction was terminated by centrifugation (833 g. 10 minutes at 4° C.). Supernatant were analyzed for LTB4 and thromboxane by commercially available enzyme-linked immunoassays [Caymen Chemical Co., Ann Arbor, Mich.] in accordance with the manufacturer's instructions. The percent inhibition was determined by comparison to animals treated identically except that the solution administered by oral gavage was devoid of inhibitor compound.

LTA4 hydrolase = conditions: cited from earlier work
[4] = human whole blood diluted 1:4, 15 min preincubation at 37° C., ionophore 20 mcg/ml, 10 min
[5] = mouse, oral gavage, 10 mg/kg (* indicates 50 mg/kg), 1 hour after administration, ionophore A23187 20 mcg/ml

| Molecule | IC50 [1] [nM] | IC50 [2, 4] [nM] | inhibition at 10 mg/kg [3, 5] [%] | IC50 ([2]; Homo sapiens) [nM] | inhibition at 10 mg/kg ([3]; Mus musculus, po, 1 h) [%] | Murine Ex Vivo LTB4 Inhibition, % I LTB4 at 1 hour after administration [3, 5] [%] | LTA4 hydrolase inhibitory activity (LTA4 hydrolase) |
| --- | --- | --- | --- | --- | --- | --- | --- |
| CN(CCCOc1ccc(Cc2cccs2)cc1)CCC(=O)NS(=O)(=O)c1ccccc1 [Example 9] | < 0.5 | 79 | 87 | – | – | – | – |
| CN(CCCOc1ccc(Cc2cccs2)cc1)CCC(=O)NS(C)(=O)=O [Example 10, N-(Methylsulfonyl)-3-[methyl[3-[4-[(2-thienyl)-methyl]phenoxy]propyl]amino]propanamide] | 0.5 | 61 | 93 | – | – | – | – |
| CCN(CCCOc1ccc(Cc2cccs2)cc1)CCC(=O)NS(C)(=O)=O [Example 11, 3-[Ethyl[3-[4-[(2-thienyl)methyl]phenoxy]propyl]-amino]-N-(methylsulfonyl)propanamide monohydrochloride] | 33 | 66 | 86 | – | – | – | – |
| CC(C)N(CCCOc1ccc(Cc2cccs2)cc1)CCC(=O)NS(C)(=O)=O [Example 12, 3-[(1-methylethyl)[3-[4-[(2-thienyl)methyl-]phenoxy]propyl]-amino]-N-(methylsulfonyl)-propanamide monohydrochloride] | 12 | 80 | 68 | – | – | – | – |
| CC(C)N(CCCOc1ccc(Cc2cccs2)cc1)CCC(=O)NS(=O)(=O)c1ccccc1 [Example 13, 3-[(1-methylethyl)[3-[4-[(2-thienyl)methyl-]phenoxy]propyl]amino]-N-(phenylsulfonyl)-propanamide, monohydrochloride] | 2.3 | 40 | – | – | – | – | – |
| CCN(CCCOc1ccc(Cc2ccsc2)cc1)CCC(=O)NS(=O)(=O)c1ccccc1 [Example 14, monohydrate] | 11 | 82 | 87 | – | – | – | – |
| CCN(CCCOc1ccc(Cc2ccsc2)cc1)CCC(=O)NS(C)(=O)=O [Example 15, 3-[Ethyl[3-[4-[(3-thienyl)methyl]phenoxy]propyl]-amino]-N-(methylsulfonyl)propanamide monohydrochloride] | – | 230 | 79 | – | – | – | – |
| CC(C)N(CCCOc1ccc(Cc2ccsc2)cc1)CCC(=O)NS(C)(=O)=O [Example 16] | 450 | 200 | 85 | – | – | – | – |
| CN(CCCOc1ccc(Cc2ccsc2)cc1)CCC(=O)NS(=O)(=O)c1ccccc1 [Example 17, monohydrochloride] | 0.5 | 130 | 93 | – | – | – | – |
| CN(CCCOc1ccc(Cc2ccsc2)cc1)CCC(=O)NS(C)(=O)=O [Example 18, N-(methylsulfonyl)-3-[methyl[3-[4-[(3-thienyl)methyl]phenoxy]propyl]-amino]propanamide] | 20 | 190 | 94 | – | – | – | – |
| CC(C)N(CCCOc1ccc(Cc2ccsc2)cc1)CCC(=O)NS(=O)(=O)c1ccccc1 [Example 21] | 90 | 150 | 60 | – | – | – | – |
| CN(CCCOc1ccc(Cc2ccccc2)cc1)CCC(=O)NS(=O)(=O)c1ccccc1 [Example 22] | 1 | – | – | 75 | 94 | – | – |
| CN(CCCOc1ccc(Cc2ccccc2)cc1)CCC(=O)NS(C)(=O)=O [Example 23] | 1.3 | 70 | 100 | – | – | – | – |
| CS(=O)(=O)NC(=O)CCN(CCCOc1ccc(Cc2ccccc2)cc1)C1CC1 [Example 24] | 2160 | 2710 | – | – | – | – | – |
| CC(C)(C)N(CCCOc1ccc(Cc2ccccc2)cc1)CCC(=O)NS(C)(=O)=O [Example 25] | 100 | 110 | 45 | – | – | – | – |
| CC(C)N(CCCOc1ccc(Cc2ccccc2)cc1)CCC(=O)NS(C)(=O)=O [Example 26] | 160 | 220 | 81 | – | – | – | – |
| CC(C)N(CCCOc1ccc(Cc2ccccc2)cc1)CCC(=O)NS(C)(=O)=O [Example 27] | 47 | 100 | – | – | – | 44 | – |
| CCN(CCCOc1ccc(Cc2ccccc2)cc1)CCC(=O)NS(C)(=O)=O [Example 28] | 540 | 180 | 89 | – | – | – | – |
| CCN(CCCOc1ccc(Cc2ccccc2)cc1)CCC(=O)NS(=O)(=O)c1ccccc1 [Example 29] | 79 | 130 | 65 | – | – | – | – |
| CC(C)C[C@H](NC(=O)[C@@H](O)[C@H](N)Cc1ccccc1)C(=O)O [bestatin] | – | – | – | – | – | – | exhibit LTA4 hydrolase inhibitory activity |
| C[C@H](CS)C(=O)N1CCC[C@H]1C(=O)O [captopril] | – | – | – | – | – | – | exhibit LTA4 hydrolase inhibitory activity |
| N-(methylsulfonyl)-3-[propyl[3-[4-[(3-thienyl)methyl]phenoxy]propyl]-amino]propanamide [Example 20] | 150 | 150 | – | – | – | 56 | – |
| N-(phenylsulfonyl)-3-[propyl[3-[4-[(3-thienyl)methyl]phenoxy]propyl]-amino]propanamide monohydrochloride [Example 19] | 90 | 75 | – | – | – | 45 | – |

Reference: patent publication US6162823A, “LTA4 hydrolase inhibitors” (G.D. Searle & Co., priority 1997, dated 2000)
